Test systems include DMS-273; M19-MEL; LXFL 529; HOP-18; DMS-114; XF498; KM-20L2; RXF 631; SNB-78.
Assay in all cases: NCI tumour cell line growth inhibition, 48 h

Four compounds from ChEMBL document CHEMBL1201862, “PubChem BioAssay data set” (2004) can be followed below.

Molecules are shown by their SMILES.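 A five-concentration, 48-hour dose response in 96-well plates underlies each endpoint, interpolated linearly between surrounding concentrations. GI50 = concentration required for 50% inhibition of growth.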 Active and inactive are the calls of the source. No stated cut-off is given here; in the data, active = GI50 up to about 1.1 µM and inactive = higher.

On to `CSC(=S)N/N=C/c1nccc2ccccc12`, for which the GI50 in the experiment with DMS-273 was 1.85 µM (inactive); with M19-MEL, 2.29 µM (inactive); in the experiment on LXFL 529, 0.488 µM (active); in the experiment on HOP-18 it was 1.82 µM (inactive); with DMS-114, 0.627 µM (active); in the experiment on XF498 it was 0.809 µM (active). In addition, the GI50 is 0.43 µM (active) in the experiment with KM-20L2, 4.69 µM (inactive) in the experiment on RXF 631 and 3.18 µM (inactive) in the experiment with SNB-78.
With `O=c1nc2sc3ccc4ccccc4c3n2nc1-c1ccccc1`, the GI50 in the experiment on DMS-273 is 39.2 µM (inactive); in the experiment on M19-MEL it was 78.3 µM (inactive); in the experiment with LXFL 529 it was 44.7 µM (inactive); in the experiment with HOP-18, 30.5 µM (inactive); in the experiment with DMS-114 it was > 100 µM (inactive); in the experiment with XF498, 29.6 µM (inactive). Besides, the GI50 with KM-20L2 was 62.8 µM (inactive); in the experiment with RXF 631 it was 36.6 µM (inactive); with SNB-78, 35.8 µM (inactive).
Turning to `Cc1ccccc1NC(=O)C(=O)Cc1nc2ccccc2s1`, the GI50 in the experiment on DMS-273, with M19-MEL, in the experiment with LXFL 529, with HOP-18, with DMS-114 and with XF498 was > 100 µM (inactive) each time. Also, the GI50 was > 100 µM (inactive) in the experiment with RXF 631 and 92.5 µM (inactive) in the experiment with SNB-78.
As for `C[N+](C)(C)CC1CCC(C[N+](C)(C)C)C1=O` (stereo not given), the GI50 in the experiment on DMS-273 was 2.16 µM (inactive); in the experiment with M19-MEL, 1.94 µM (inactive); in the experiment with LXFL 529, 0.555 µM (active); in the experiment with HOP-18, 0.794 µM (active); in the experiment with DMS-114 it was 2.34 µM (inactive); in the experiment with XF498, 2.03 µM (inactive). The GI50 with KM-20L2 was 3.18 µM (inactive); in the experiment with RXF 631, 5.47 µM (inactive); with SNB-78 it was 2.4 µM (inactive).
